Source: patent US7074789B2, “Kinase inhibitors” (Amgen Inc., priority 1999, dated 2006)

What was measured:
Assay type in all cases: biochemical
Zap-70 = target: T1, Zap-70 (Homo sapiens, UniProt P43403); assay: Kinase inhibition assay (33P transfer), Zap-70; conditions: Table 3; read-out: Zap-1
T1 construct: Kinases are expressed as either kinase domains or full length constructs; made in house
T1 sequence (P43403 1-619): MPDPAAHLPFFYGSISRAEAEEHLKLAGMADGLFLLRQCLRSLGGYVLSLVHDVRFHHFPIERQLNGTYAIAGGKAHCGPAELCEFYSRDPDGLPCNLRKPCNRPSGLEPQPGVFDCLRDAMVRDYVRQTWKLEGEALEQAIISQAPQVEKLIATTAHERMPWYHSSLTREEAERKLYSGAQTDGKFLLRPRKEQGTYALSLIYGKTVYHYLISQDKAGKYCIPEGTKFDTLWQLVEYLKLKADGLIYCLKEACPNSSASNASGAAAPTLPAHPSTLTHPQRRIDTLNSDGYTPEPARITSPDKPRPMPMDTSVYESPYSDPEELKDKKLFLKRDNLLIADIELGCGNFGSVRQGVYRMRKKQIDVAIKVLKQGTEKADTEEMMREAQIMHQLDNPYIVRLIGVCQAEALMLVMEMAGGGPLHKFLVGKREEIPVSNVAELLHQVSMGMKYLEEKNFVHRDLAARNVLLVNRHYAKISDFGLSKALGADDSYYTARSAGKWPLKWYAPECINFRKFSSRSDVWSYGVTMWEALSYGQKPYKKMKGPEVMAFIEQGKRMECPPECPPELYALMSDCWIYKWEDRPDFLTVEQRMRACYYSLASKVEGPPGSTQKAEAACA
Summary of the method: (§1)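 Kinase domains or full-length kinases, GST- or His-tagged and expressed in E. coli or baculovirus/High Five cells, transferred 33PO4 from ATP onto plate-bound poly(Glu,Tyr) 4:1 or poly(Arg,Ser) 3:1. After incubation, plates were washed with 0.5% phosphoric acid and counted by liquid scintillation.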

Lck = target: T2, Lck (Homo sapiens, UniProt P06239); assay: Kinase inhibition assay (33P transfer), Lck; conditions: Table 3; read-out: Lck-1
T2 construct: Kinases are expressed as either kinase domains or full length constructs; made in house
Summary of the method: as §1

Lyn = target: T3, Lyn (Homo sapiens, UniProt P07948); assay: Kinase inhibition assay (33P transfer), Lyn; conditions: Table 6, Lyn-1 kinase inhibition class
T3 construct: Kinases are expressed as either kinase domains or full length constructs; made in house
Summary of the method: (§2)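 Each enzyme, purified to near homogeneity by affinity chromatography, was incubated with ATP carrying 33P and a substrate polymer fixed to the plate. Unbound label was removed with dilute phosphoric acid (0.5%) before adding scintillant and counting. Potency is given as the compound level cutting label uptake by 50%.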

AKT = target: T4, AKT (Homo sapiens, UniProt Q9Y243); assay: Kinase inhibition assay (33P transfer), AKT; conditions: Table 2, kinase inhibition class; read-out: AKT3-1
T4 construct: Kinases are expressed as either kinase domains or full length constructs; made in house
Summary of the method: as §1

Src = target: T5, Src (Homo sapiens, UniProt P12931); assay: Kinase inhibition assay (33P transfer), Src; conditions: Table 6, Src-1 kinase inhibition class
T5 construct: Kinases are expressed as either kinase domains or full length constructs; made in house
Summary of the method: as §2

Ret-1 = target: T6, Ret-1 (Homo sapiens, UniProt P07949); assay: Kinase inhibition assay (33P transfer), Ret; conditions: Table 6, Ret-1 kinase inhibition class
T6 construct: Kinases are expressed as either kinase domains or full length constructs; made in house

EGFR = target: T7, EGFR (Homo sapiens, UniProt P00533); assay: Kinase inhibition assay (33P transfer), EGFR; conditions: Table 2, kinase inhibition class; read-out: EGFR-1
T7 construct: Kinases are expressed as either kinase domains or full length constructs; made in house
Summary of the method: as §2

Fyn = target: T8, Fyn (Homo sapiens, UniProt P06241); assay: Kinase inhibition assay (33P transfer), Fyn; conditions: read-out: Fyn-1
T8 construct: Kinases are expressed as either kinase domains or full length constructs; made in house
Summary of the method: as §2

Kdr = target: T9, Kdr (Homo sapiens, UniProt P35968); assay: Kinase inhibition assay (33P transfer), Kdr; conditions: Table 3; read-out: KDR-1
T9 construct: Kinases are expressed as either kinase domains or full length constructs; made in house
Summary of the method: as §1

Hck-1 = target: T10, Hck-1 (Homo sapiens, UniProt P08631); assay: Kinase inhibition assay (33P transfer), Hck; conditions: Table 6, Hck-1 kinase inhibition class
T10 construct: Kinases are expressed as either kinase domains or full length constructs; made in house
T10 sequence (P08631 whole entry, the tested form may be a part): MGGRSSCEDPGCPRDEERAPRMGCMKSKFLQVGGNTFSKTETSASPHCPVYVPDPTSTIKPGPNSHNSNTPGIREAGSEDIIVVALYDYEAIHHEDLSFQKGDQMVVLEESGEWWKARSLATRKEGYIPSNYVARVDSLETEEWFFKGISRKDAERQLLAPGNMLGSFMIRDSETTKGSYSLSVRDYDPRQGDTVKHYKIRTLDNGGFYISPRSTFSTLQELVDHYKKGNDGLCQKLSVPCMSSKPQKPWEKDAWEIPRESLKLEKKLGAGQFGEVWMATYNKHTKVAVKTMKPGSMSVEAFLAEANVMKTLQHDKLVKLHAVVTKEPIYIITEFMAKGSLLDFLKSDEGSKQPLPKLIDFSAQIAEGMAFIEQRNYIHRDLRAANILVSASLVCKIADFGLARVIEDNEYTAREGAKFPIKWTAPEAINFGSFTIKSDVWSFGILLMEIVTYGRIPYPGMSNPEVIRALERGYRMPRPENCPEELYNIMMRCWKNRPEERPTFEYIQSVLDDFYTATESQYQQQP

T8 sequence (P06241 whole entry, species assumed, the tested form may be a part): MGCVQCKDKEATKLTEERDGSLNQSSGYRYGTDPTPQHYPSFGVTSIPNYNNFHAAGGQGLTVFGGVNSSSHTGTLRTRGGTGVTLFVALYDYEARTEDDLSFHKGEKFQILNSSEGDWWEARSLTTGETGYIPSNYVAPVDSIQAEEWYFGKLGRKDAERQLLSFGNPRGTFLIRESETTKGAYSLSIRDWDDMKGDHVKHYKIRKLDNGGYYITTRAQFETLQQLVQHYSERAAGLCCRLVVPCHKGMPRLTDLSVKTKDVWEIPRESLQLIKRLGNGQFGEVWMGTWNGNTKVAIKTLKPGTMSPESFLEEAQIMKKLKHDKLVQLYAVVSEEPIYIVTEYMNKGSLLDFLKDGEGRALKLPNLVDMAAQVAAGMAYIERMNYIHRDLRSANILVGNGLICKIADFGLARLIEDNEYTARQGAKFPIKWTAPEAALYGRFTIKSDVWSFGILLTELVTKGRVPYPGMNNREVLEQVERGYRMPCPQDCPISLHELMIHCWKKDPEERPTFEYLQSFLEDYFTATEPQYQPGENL
T5 sequence (P12931 whole entry, species assumed, the tested form may be a part): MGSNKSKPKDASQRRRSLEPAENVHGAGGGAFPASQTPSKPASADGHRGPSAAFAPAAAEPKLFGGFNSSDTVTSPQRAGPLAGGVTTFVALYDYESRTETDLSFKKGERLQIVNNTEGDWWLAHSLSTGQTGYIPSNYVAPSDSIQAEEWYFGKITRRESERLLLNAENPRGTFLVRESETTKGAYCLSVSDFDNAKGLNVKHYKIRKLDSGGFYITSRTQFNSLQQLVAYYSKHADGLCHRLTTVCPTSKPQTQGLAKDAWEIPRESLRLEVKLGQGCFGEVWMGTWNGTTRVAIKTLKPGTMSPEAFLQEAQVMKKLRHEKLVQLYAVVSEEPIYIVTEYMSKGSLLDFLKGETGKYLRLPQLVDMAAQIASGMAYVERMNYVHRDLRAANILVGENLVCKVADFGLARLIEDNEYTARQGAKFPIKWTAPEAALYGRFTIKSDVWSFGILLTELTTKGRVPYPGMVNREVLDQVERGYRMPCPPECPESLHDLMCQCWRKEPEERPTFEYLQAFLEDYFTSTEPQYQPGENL
T3 sequence (P07948 whole entry, species assumed, the tested form may be a part): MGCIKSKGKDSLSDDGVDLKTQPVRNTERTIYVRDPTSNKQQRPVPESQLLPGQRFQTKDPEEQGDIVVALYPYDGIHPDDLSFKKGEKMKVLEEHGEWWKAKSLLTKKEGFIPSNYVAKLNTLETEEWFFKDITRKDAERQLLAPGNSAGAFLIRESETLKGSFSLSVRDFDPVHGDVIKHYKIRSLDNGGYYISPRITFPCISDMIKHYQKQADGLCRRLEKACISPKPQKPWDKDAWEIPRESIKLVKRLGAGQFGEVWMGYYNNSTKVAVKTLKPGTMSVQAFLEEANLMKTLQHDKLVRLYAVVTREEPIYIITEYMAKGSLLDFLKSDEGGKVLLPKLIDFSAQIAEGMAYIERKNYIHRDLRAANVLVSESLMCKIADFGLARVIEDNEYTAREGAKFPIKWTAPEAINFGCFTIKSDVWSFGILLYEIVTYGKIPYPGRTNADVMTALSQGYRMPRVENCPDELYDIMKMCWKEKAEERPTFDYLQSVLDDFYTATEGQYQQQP
T4 sequence (Q9Y243 whole entry, the tested form may be a part): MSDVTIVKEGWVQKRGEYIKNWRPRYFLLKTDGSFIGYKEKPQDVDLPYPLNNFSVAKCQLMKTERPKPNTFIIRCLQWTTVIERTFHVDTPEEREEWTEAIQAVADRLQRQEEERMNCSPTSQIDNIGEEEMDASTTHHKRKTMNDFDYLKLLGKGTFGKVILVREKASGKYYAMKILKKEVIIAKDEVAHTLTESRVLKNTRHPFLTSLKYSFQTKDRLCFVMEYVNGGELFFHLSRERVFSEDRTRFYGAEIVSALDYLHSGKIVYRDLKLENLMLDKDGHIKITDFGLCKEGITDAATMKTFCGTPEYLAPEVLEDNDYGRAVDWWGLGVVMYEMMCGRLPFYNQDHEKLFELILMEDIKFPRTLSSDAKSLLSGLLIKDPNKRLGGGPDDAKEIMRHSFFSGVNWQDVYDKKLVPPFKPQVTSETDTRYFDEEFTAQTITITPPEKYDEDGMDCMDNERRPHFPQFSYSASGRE
T9 sequence (P35968 20-1356, species assumed): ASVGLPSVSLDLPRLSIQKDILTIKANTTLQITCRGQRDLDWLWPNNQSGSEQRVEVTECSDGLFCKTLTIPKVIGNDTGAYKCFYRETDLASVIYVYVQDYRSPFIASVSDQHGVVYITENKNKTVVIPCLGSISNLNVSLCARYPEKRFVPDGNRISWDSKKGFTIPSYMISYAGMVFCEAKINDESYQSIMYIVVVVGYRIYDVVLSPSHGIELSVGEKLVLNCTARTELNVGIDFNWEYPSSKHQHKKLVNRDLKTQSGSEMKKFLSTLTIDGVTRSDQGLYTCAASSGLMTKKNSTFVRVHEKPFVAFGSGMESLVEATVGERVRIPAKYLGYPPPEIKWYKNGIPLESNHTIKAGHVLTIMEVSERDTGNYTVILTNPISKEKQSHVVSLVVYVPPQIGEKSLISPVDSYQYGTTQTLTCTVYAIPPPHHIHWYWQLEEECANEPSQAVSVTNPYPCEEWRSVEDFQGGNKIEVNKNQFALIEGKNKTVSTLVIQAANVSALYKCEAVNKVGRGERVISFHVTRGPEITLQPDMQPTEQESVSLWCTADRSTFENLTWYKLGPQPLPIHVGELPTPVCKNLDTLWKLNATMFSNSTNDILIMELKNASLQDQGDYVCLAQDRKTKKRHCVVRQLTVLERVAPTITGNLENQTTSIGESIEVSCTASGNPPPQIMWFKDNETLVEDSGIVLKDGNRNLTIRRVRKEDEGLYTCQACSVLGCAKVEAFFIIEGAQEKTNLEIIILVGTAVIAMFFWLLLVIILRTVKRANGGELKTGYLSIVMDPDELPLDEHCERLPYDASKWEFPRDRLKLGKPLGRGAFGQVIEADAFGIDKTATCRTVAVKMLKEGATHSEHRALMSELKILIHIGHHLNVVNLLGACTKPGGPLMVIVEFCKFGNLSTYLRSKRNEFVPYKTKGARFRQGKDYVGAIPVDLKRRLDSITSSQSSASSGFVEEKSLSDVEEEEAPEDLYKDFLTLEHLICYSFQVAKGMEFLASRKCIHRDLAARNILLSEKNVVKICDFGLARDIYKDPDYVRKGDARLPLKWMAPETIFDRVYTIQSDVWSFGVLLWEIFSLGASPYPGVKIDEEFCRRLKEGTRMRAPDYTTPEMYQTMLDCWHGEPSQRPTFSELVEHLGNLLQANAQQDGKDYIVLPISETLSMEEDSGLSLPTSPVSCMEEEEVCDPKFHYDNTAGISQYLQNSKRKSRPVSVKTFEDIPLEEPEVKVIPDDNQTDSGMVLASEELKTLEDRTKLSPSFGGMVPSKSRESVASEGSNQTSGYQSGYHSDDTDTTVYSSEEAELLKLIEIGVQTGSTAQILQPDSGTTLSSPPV
T6 sequence (P07949 29-1114): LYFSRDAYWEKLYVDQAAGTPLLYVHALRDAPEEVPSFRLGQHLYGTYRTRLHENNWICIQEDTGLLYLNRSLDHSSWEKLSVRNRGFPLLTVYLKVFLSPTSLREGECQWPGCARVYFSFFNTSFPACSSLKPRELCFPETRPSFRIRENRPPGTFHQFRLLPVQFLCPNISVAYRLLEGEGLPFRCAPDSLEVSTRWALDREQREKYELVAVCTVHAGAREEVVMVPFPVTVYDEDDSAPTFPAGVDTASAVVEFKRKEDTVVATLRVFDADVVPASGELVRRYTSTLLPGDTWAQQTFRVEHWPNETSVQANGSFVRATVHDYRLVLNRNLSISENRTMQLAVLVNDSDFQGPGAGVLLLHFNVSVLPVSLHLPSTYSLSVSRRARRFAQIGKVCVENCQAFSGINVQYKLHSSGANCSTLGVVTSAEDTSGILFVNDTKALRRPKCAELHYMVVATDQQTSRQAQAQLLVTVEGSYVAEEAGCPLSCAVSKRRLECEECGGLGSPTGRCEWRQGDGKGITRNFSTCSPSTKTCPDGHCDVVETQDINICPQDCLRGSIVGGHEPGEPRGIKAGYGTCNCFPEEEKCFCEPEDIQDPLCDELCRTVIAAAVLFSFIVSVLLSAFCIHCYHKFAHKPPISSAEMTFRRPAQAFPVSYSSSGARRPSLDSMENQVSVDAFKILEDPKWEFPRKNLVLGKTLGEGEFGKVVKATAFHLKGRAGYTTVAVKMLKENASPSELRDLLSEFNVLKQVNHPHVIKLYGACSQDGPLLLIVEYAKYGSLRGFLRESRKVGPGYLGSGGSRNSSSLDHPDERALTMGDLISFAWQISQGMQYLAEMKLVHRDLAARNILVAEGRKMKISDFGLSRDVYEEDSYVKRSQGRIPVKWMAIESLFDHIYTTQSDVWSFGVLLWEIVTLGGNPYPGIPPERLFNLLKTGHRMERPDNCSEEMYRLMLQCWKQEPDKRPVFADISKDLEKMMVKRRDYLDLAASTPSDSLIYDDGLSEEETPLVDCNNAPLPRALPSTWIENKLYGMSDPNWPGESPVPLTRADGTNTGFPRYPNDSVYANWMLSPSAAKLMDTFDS

IC50 (Zap-70)	IC50 (Lck)	IC50 (Lyn)	IC50 (AKT)	IC50 (Src)	IC50 (Ret-1)	IC50 (EGFR)	IC50 (Fyn)	IC50 (Kdr)	IC50 (Hck-1)	SMILES
> 11.9 µM	1.06 to 6.34 µM	1.06 to 6.34 µM	> 11.9 µM	9.25 to 11.9 µM	6.34 to 9.25 µM	> 11.9 µM	1.06 to 6.34 µM	1.06 to 6.34 µM	> 11.9 µM	COc1cc(Nc2ncnc(-n3ncc4ccccc43)n2)cc(OC)c1OC [Compound 240]
> 12.9 µM	1.14 to 6.87 µM	> 12.9 µM	6.87 to 10 µM	10 to 12.9 µM	< 1.14 µM	6.87 to 10 µM	> 12.9 µM	< 1.14 µM	> 12.9 µM	COc1ccc(Nc2ncnc(-n3c(N)nc4ccccc43)n2)cc1O [Compound 286]
> 11.4 µM	> 11.4 µM	8.87 to 11.4 µM	> 11.4 µM	> 11.4 µM	> 11.4 µM	8.87 to 11.4 µM	6.09 to 8.87 µM	< 1.01 µM	> 11.4 µM	COc1cc(Nc2ncnc(-n3c(=O)[nH]c4ccccc43)n2)cc(OC)c1OC [Compound 325]
> 11 µM	> 11 µM	5.89 to 8.59 µM	> 11 µM	> 11 µM	> 11 µM	8.59 to 11 µM	> 11 µM	< 0.982 µM	> 11 µM	COc1ccc2c(ccn2-c2ncnc(Nc3cc(OC)c(OC)c(OC)c3)n2)c1 [Compound 196]
> 11.7 µM	1.04 to 6.23 µM	< 1.04 µM	> 11.7 µM	< 1.04 µM	1.04 to 6.23 µM	< 1.04 µM	1.04 to 6.23 µM	< 1.04 µM	> 11.7 µM	COc1cc(Nc2ncnc(Nc3ccc(C)c(F)c3)n2)cc(OC)c1OC [Compound 300]
> 10.3 µM	8.04 to 10.3 µM	> 10.3 µM	5.51 to 8.04 µM	> 10.3 µM	0.919 to 5.51 µM	> 10.3 µM	> 10.3 µM	0.919 to 5.51 µM	> 10.3 µM	COc1cc(Nc2ncnc(-n3c(NC(C)=O)nc4ccccc43)n2)cc(OC)c1OC [Compound 334]
8.5 to 10.9 µM	0.971 to 5.83 µM	5.83 to 8.5 µM	> 10.9 µM	> 10.9 µM	5.83 to 8.5 µM	8.5 to 10.9 µM	> 10.9 µM	< 0.971 µM	> 10.9 µM	COc1cc(Nc2ncnc(-n3ccc4ccc(Cl)cc43)n2)cc(OC)c1OC [Compound 237]
> 11.7 µM	1.04 to 6.23 µM	< 1.04 µM	> 11.7 µM	1.04 to 6.23 µM	< 1.04 µM	< 1.04 µM	1.04 to 6.23 µM	< 1.04 µM	> 11.7 µM	COc1cc(Nc2ncnc(Nc3ccc(C)cc3F)n2)cc(OC)c1OC [Compound 937]
8.94 to 11.5 µM	8.94 to 11.5 µM	> 11.5 µM	> 11.5 µM	> 11.5 µM	> 11.5 µM	> 11.5 µM	> 11.5 µM	< 1.02 µM	> 11.5 µM	COc1cc(Nc2ncnc(-n3cc(C)c4ccccc43)n2)cc(OC)c1OC [Compound 323]
> 11 µM	> 11 µM	> 11 µM	> 11 µM	> 11 µM	> 11 µM	> 11 µM	> 11 µM	0.982 to 5.89 µM	> 11 µM	COc1cc(Nc2ncnc(-n3ccc4c(OC)cccc43)n2)cc(OC)c1OC [Compound 238]

Second part, the compound before the results:

SMILES	IC50 (Zap-70)	IC50 (Lck)	IC50 (Lyn)	IC50 (AKT)	IC50 (Src)	IC50 (Ret-1)	IC50 (EGFR)	IC50 (Fyn)	IC50 (Kdr)	IC50 (Hck-1)
COC(=O)c1sccc1Nc1ncnc(Nc2cc(OC)c(OC)c(OC)c2)n1 [Compound 315]	8.38 to 10.8 µM	8.38 to 10.8 µM	> 10.8 µM	> 10.8 µM	> 10.8 µM	> 10.8 µM	> 10.8 µM	> 10.8 µM	< 0.958 µM	> 10.8 µM
COc1ccc(Nc2ncnc(Nc3ccc4[nH]ccc4c3)n2)cc1OC [Compound 115]	> 12.4 µM	1.1 to 6.62 µM	6.62 to 9.66 µM	1.1 to 6.62 µM	6.62 to 9.66 µM	1.1 to 6.62 µM	< 1.1 µM	6.62 to 9.66 µM	1.1 to 6.62 µM	> 12.4 µM
CCOc1ccc(Nc2ncnc(Nc3ccc(C)c(O)c3)n2)cc1OCC [Compound 121]	> 11.8 µM	1.05 to 6.29 µM	< 1.05 µM	> 11.8 µM	< 1.05 µM	< 1.05 µM	1.05 to 6.29 µM	< 1.05 µM	< 1.05 µM	> 11.8 µM
COc1cc(Nc2ncnc(N3c4ccc(F)cc4CCC3C)n2)cc(OC)c1OC (centres unmarked) [Compound 298]	8.23 to 10.6 µM	0.94 to 5.64 µM	< 0.94 µM	> 10.6 µM	0.94 to 5.64 µM	< 0.94 µM	0.94 to 5.64 µM	0.94 to 5.64 µM	< 0.94 µM	0.94 to 5.64 µM
c1coc(-c2cc(Nc3ncnc(Nc4ccc(N5CCOCC5)cc4)n3)[nH]n2)c1 [Compound 340]	> 11.1 µM	0.989 to 5.93 µM	0.989 to 5.93 µM	5.93 to 8.65 µM	> 11.1 µM	< 0.989 µM	5.93 to 8.65 µM	0.989 to 5.93 µM	< 0.989 µM	> 11.1 µM
COc1cc(Nc2ncnc(-n3c(N)nc4ccccc43)n2)ccc1OCCn1ccnn1 [Compound 324]	> 10.1 µM	> 10.1 µM	> 10.1 µM	> 10.1 µM	> 10.1 µM	< 0.9 µM	> 10.1 µM	> 10.1 µM	< 0.9 µM	> 10.1 µM
COc1ccc(Sc2ncnc(Nc3cc(OC)c(OC)c(OC)c3)n2)cc1 [Compound 175]	> 11.2 µM	0.999 to 5.99 µM	5.99 to 8.74 µM	> 11.2 µM	0.999 to 5.99 µM	5.99 to 8.74 µM	> 11.2 µM	0.999 to 5.99 µM	< 0.999 µM	> 11.2 µM
COc1ccc(Nc2ncnc(N(CC(=O)O)c3ccc4c(c3)OCO4)n2)cc1OC [Compound 320]	8.23 to 10.6 µM	5.64 to 8.23 µM	> 10.6 µM	> 10.6 µM	> 10.6 µM	> 10.6 µM	0.94 to 5.64 µM	> 10.6 µM	5.64 to 8.23 µM	> 10.6 µM
COc1cc(Nc2ncnc(N(C/C=C/c3ccccc3)c3ccc(Cl)cc3)n2)cc(OC)c1OC [Compound 56]	> 8.93 µM	4.76 to 6.94 µM	0.794 to 4.76 µM	> 8.93 µM	> 8.93 µM	> 8.93 µM	< 0.794 µM	> 8.93 µM	0.794 to 4.76 µM	> 8.93 µM
COc1ccc(Nc2ccc(Nc3ncnc(Nc4cc(OC)c(OC)c(OC)c4)n3)cc2)cc1 [Compound 922]	5.06 to 7.38 µM	0.843 to 5.06 µM	< 0.843 µM	0.843 to 5.06 µM	0.843 to 5.06 µM	0.843 to 5.06 µM	0.843 to 5.06 µM	0.843 to 5.06 µM	< 0.843 µM	> 9.48 µM
COc1ccc(Nc2ncnc(Nc3cc(-c4ccco4)n[nH]3)n2)cc1OC [Compound 337]	> 11.9 µM	1.05 to 6.33 µM	1.05 to 6.33 µM	> 11.9 µM	1.05 to 6.33 µM	< 1.05 µM	1.05 to 6.33 µM	1.05 to 6.33 µM	< 1.05 µM	> 11.9 µM
COCCOc1ccc(Nc2ncnc(-n3c(N)nc4ccccc43)n2)cc1OCCOC [Compound 302]	> 9.97 µM	> 9.97 µM	> 9.97 µM	> 9.97 µM	> 9.97 µM	> 9.97 µM	> 9.97 µM	> 9.97 µM	0.886 to 5.32 µM	> 9.97 µM
C#Cc1cccc(Nc2ncnc(Nc3ccc(OC)c(OC)c3)n2)c1 [Compound 116]	> 13 µM	10.1 to 13 µM	> 13 µM	> 13 µM	> 13 µM	> 13 µM	< 1.15 µM	> 13 µM	6.91 to 10.1 µM	> 13 µM
